According to PMC11858841, “Intravenous Nanoemulsions Loaded with Phospholipid Complex of a Novel Pyrazoloquinolinone Ligand for Enhanced Brain Delivery” (Pharmaceutics, 2025):
In brackets after ≈: the same amount, converted by molar mass.

Key:
[1] = tested on: σ2 receptors; assay: PDSP binding study, σ2 receptors; conditions: versus the other four hits of the primary screen
[2] = Solubility, shake-flask method; format: physicochemical; conditions: thermodynamic from solid
Experimental: The solubility of CW-02-79 in selected oils, organic solvents, and water solutions of various pH values was examined by using the shake-flask method, by adding an excess amount of CW-02-79. The blends were mixed on a vortex mixer for 24 h at 25 ± 2 °C to reach equilibrium. The samples were centrifuged (1000× g, 10 min, 25 °C) on a MiniSpin® plus centrifuge (Eppendorf, Hamburg, Germany). The concentration of CW-02-79 was determined after proper dilution of the supernatant with isopropanol using the LC-MS/MS method.
The concentration of CW-02-79 was determined using a LC-MS/MS method. The analysis was performed on a UHPLC chromatograph ACELLA (Thermo Fisher Scientific Inc., Madison, WI, USA), coupled to a triple quadrupole mass spectrometer TSQ Quantum Access MAX (Thermo Fisher Scientific Inc., Madison, WI, USA) with a heated electrospray ionization (HESI) interface. The column was XTerra MS C18 (150 mm × 2.1 mm, […] particle size). The mobile phase was acetonitrile/0.1% formic acid = 70:30 (v/v), the flow rate was 0.2 mL min^−1, the column temperature was set to 35 °C, and the injection volume was 10 µL. CW-02-79 and the internal standard were detected and quantified in the positive HESI mode (m/z = 389.90–345.90 and m/z = 349.00–304.11, respectively).

[3] = In vitro permeation through iPSC-derived blood–brain barrier model; format: in vitro ADME, human; conditions: inserts without cells; read-out: recovery of CW-02-79 without cells
From the text: The in vitro BBB model based on the co-culture of iPSC-derived brain microvascular endothelial cells, astrocytes, and pericytes was used to estimate the transport of CW-02-79 into the brain from the developed nanoemulsions (the protocol used is available on the manufacturer’s website: iCell Blood Brain Barrier Isogenic Kit protocol, FujiFilm Cellular Dynamic Inc., Madison, WI, USA) [24]. Cell culture inserts for BBB co-cultures (pore size 0.4 µm, effective cell growth area 0.33 cm^2, Falcon®, Corning Inc., Salt Lake City, UT, USA) were coated on the apical side with a fibronectin-collagen IV matrix and on the basolateral side with a 0.1% gelatin solution. Then, astrocyte and pericyte suspensions were seeded on the basolateral side, with brain microvascular endothelial cells in the apical region of inserts, followed by overnight incubation at 37 °C and 5% CO2. […]
The total volume on the basolateral side was compensated with 100 µL of the fresh termostated medium. […] The mass balance (%) was also determined based on the amount of CW-02-79 determined in both the apical and basolateral compartments at the end of the assay divided by the total amount of CW-02-79 placed in the apical compartment to assess the potential adsorption to plastic or non-specific binding to cells.

[4] = target: σ2 receptors; set-up: method as in PDSP Ki database https://pdspdb.unc.edu/databases/kidb.php; conditions: ref PDSP Ki database https://pdspdb.unc.edu/databases/kidb.php; cited from earlier work
[5] = target: 5-HT7 receptor; set-up: method as in PDSP Ki database https://pdspdb.unc.edu/databases/kidb.php; conditions: ref PDSP Ki database https://pdspdb.unc.edu/databases/kidb.php; cited from earlier work
[6] = target: benzodiazepine binding site at GABAA receptors; set-up: method as in PDSP Ki database https://pdspdb.unc.edu/databases/kidb.php; conditions: ref PDSP Ki database https://pdspdb.unc.edu/databases/kidb.php; cited from earlier work
[7] = target: histamine H2 receptor; set-up: method as in PDSP Ki database https://pdspdb.unc.edu/databases/kidb.php; conditions: ref PDSP Ki database https://pdspdb.unc.edu/databases/kidb.php; cited from earlier work
[8] = target: dopamine transporter; set-up: method as in PDSP Ki database https://pdspdb.unc.edu/databases/kidb.php; conditions: ref PDSP Ki database https://pdspdb.unc.edu/databases/kidb.php; cited from earlier work
[9] = tested on: GABAA receptors that contain any of the α1 to α6 subunits; set-up: method as in personal communication with Dr. Janet Fisher; conditions: 10 µM; ref personal communication with Dr. Janet Fisher; cited from earlier work
[10] = set-up: method as in unpublished data, MM Savić and B Divović Matović; conditions: doses 1 to 30 mg/kg; ref unpublished data, MM Savić and B Divović Matović; cited from earlier work

selectivity for σ2 receptors [1]: ≥ 20 fold
solubility at 24 h ([2]; aqueous buffer, Phosphate buffer, pH 7.4, 25 °C): 11.8 ± 0.7 µg/mL (≈ 30.3 µM)
solubility at 24 h ([2]; oil or lipid, Castor oil, 25 °C): 27.96 ± 0.03 µg/mL (≈ 71.8 µM)
solubility at 24 h ([2]; oil or lipid, Fish oil, 25 °C): 34.19 ± 0.06 µg/mL (≈ 87.8 µM)
solubility at 24 h ([2]; oil or lipid, MCT, 25 °C): 49.93 ± 0.07 µg/mL (≈ 128 µM)
solubility at 24 h ([2]; oil or lipid, MCT:castor oil (1:1, w/w), 25 °C): 218.4 ± 0.3 µg/mL (≈ 561 µM)
solubility at 24 h ([2]; oil or lipid, MCT:soybean oil (1:1, w/w), 25 °C): 41.41 ± 0.04 µg/mL (≈ 106 µM)
solubility at 24 h ([2]; oil or lipid, Soybean oil, 25 °C): 65.68 ± 0.43 µg/mL (≈ 169 µM)
solubility at 24 h ([2]; organic solvent or mixture, DMSO, 25 °C): > 30000 µg/mL
solubility at 24 h ([2]; organic solvent or mixture, Isopropanol, 25 °C): 5750 µg/mL (≈ 14800 µM)
solubility at 24 h ([2]; organic solvent or mixture, Methanol, 25 °C): 939.1 ± 3.53 µg/mL (≈ 2410 µM)
solubility at 24 h ([2]; simulated gastric fluid, 0.1M HCl, 25 °C): 12.3 ± 0.61 µg/mL (≈ 31.7 µM)
solubility at 24 h ([2]; Ultrapure water, 25 °C): 11.8 ± 0.2 µg/mL (≈ 30.2 µM)
recovery at 24 h, 3 µM [3]: ~100%
SMILES: COc1ccc2c3nn(-c4ccc(OC(F)(F)F)cc4)c(=O)c-3c[nH]c2c1C [CW-02-79, 7-methoxy-6-methyl-2-(4-(trifluoromethoxy)phenyl)-2,5-dihydro-3H-pyrazolo [4,3-c]quinolin-3-one]
Ki [4]: 0.112 µM
Ki [5]: 2.4 µM
Ki [6]: 4.7 µM
Ki [7]: 5.2 µM
Ki [8]: > 10 µM
modulation of GABAA receptors [9]: does not at all modulate
signs of sedation or motor incapacitation [10]: no signs of sedation or motor incapacitation
